Laboratory results published in patent US20240207379A1, “STRATEGIES TO PREVENT AND/OR TREAT IMMUNE RESPONSES TO SOLUBLE ALLOFACTORS” (IMCYSE SA, priority 2008, published 2024).

Legend:
murine splenic B cells = assay: Induction into apoptosis of splenic B cells of naïve mice by CD4+ T cells expanded with peptide (annexin V / 7-AAD Facs); format: cell-based, C57BI/6 mice
Description: FIG. 1. The bars in this Figure illustrate the viability of murine splenic B cells incubated under different conditions and evaluated by Facs analysis of annexin V binding and 7-AAD (two markers of apoptosis). • B (wt-pep): murine splenic B cells incubated with natural (wild-type) T-cell epitope derived from human anti-fVIII antibody; • B (cc-pep): murine splenic B cells incubated with T-cell epitope derived from human anti-fVIII antibody, wherein said T-cell epitope is modified by attaching the amino acids CHGC (SEQ ID NO: 20) to the N-terminus of the epitope; • B (cc-pep)+ T (cc-pep): murine splenic B cells incubated with modified anti-fVIII antibody T-cell epitope and with T cells expanded with modified T-cell epitope (modification as in “B (cc-pep)”); • B (wt-pep)+ T (cc-pep): murine splenic B cells incubated with wild-type anti-fVIII antibody T-cell epitope and T cells expanded with the corresponding modified T-cell epitope.
It was determined whether naïve B cells presenting a class II restricted T cell epitope derived from a BCR idiotype could be deleted by recognition and activation of T cells elicited to a specific anti-factor VIII antibody carrying the same idiotype. […]

[1] = system: CFSE-labelled CD4(F8-) effector CD4+ T cells; assay: Apoptosis of factor VIII-specific effector CD4+ T cells by cytolytic CD4+ T cells elicited with modified factor VIII epitope (Annexin V / 7-AAD); format: cell-based, factor VIII KO mice; details: APC (spleen B cells) loaded with 5 μg/ml huFVIII and 1 µM peptide, 72 h at 37° C., baseline mortality subtracted
Text: FIG. 2. Apoptosis of allofactor-specific effector T-cells by cytolytic CD4+ T-cells induced by a T-cell epitope derived from said allofactor and modified by attaching a thioreductase motif. The allofactor used was factor VIII. See Example 5 for more details.
Polyclonal effector CD4+ T cells were obtained from the spleen of factor VIII KO mice immunised with 2 IU of recombinant human FVIII (CD4(F8-)) and purified using anti-CD4 magnetic beads. The cells were then labelled with CFSE.
Induction of apoptosis as measured by of CFSE-labelled cells was then measured by Annexin V and 7-AAD staining after incubating such cells with APC (spleen B cells) loaded with 5 μg/ml huFVIII and 1 µM of peptide of SEQ ID NO:5 (CGHCGGFTNMFATWSPSK, corresponding to the 2196-2207 amino acid sequence of the C2 domain of human factor VIII, modified by addition of a thioreductase motif (underlined) separated by 2 glycines from the Factor VIII T-cell epitope). Apoptosis was measured after 72 h culture at 37° C. When CFSE-labelled CD4(F8-) cells were co-cultured with CD4+ T cells obtained from mice immunised with a synthetic peptide of SEQ ID NO:5 (cytolytic CD4+ T cells), significant apoptosis was induced. […] When CFSE-labelled CD4(F8−) cells were co-cultured in the presence of a double number of unlabeled CD4(F8−) cells, no apoptosis was induced (“CD4(F8−)” caption in FIG. 2). […]

YCAVPDDPDA (T-cell epitope of CDR3 of anti-factor VIII antibody BO2C11) [SEQ ID NO:1, reference compound]
influence on the survival of control B cells of T cells expanded with the peptide (murine splenic B cells; incubation period of 18 h, data not shown): no or only little influence

CHGCYCAVPDPDA (modified T-cell epitope of CDR3 of anti-factor VIII antibody BO2C11; MISC_FEATURE - thioreductase motif) [SEQ ID NO:2]
induction into apoptosis of B cells by T cells expanded with the peptide (murine splenic B cells; B cells loaded with either peptide of SEQ ID NO:1 or SEQ ID NO:2, FIG. 1): induced into apoptosis

CGHCGGFTNMFATWSPSK (modified human factor VIII T-cell epitope; MISC_FEATURE - thioreductase motif; MISC_FEATURE - Gly-Gly-linker) [SEQ ID NO:5]
apoptosis of CFSE-labelled CD4(F8-) cells co-cultured with cytolytic CD4+ T cells from mice immunised with the peptide ([1]; CD4(F8+) pool1): 6.6% | apoptosis of CFSE-labelled CD4(F8-) cells co-cultured with cytolytic CD4+ T cells from mice immunised with the peptide ([1]; CD4(F8+)pool2): 8.4%
